The source of these data is US12370143B2, “Compound or salt thereof and lipid particles” (FUJIFILM Corporation, priority 2018, dated 2025).

The IC50 is the concentration at which inhibition is half-maximal.

The nature of data set [1]: Particle size of nucleic acid lipid particles (Luc2-siRNA). The format is physicochemical. The following applies: compound/DSPC/cholesterol/DMG-PEG2000 50/10/38.5/1.5. In outline:
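Lipid particles formed from oil phase (test lipid/DSPC/cholesterol/DMG-PEG2000, 50/10/38.5/1.5 molar, 20 mmol/L total in ethanol) micromixed 1:3 with Luc2-siRNA in pH 4 acetate buffer (19.7 μmol/L); siRNA/lipid 339 mol/mol, PBS-diluted and dialyzed. Size measured on ELS-Z2 dynamic light scattering.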

Data set [2] concerns Factor VII (FVII) protein. The data set is described as follows: Measurement of Factor VII (FVII) protein in mouse plasma after FVII-siRNA lipid particles. To be noted: 0.1 mg/kg caudal vein, plasma 24 hours after administration, PBS group = 100%. It counts as in vivo, C57BL6/J mice. In outline: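 C57BL6/J mice (n=3) received FVII-siRNA nucleic acid lipid particles at 0.1 mg/kg into the tail vein; controls got PBS. Each value is the percentage of the PBS-group FVII level.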

The test system of data set [3] is DMS273 cells constantly expressing Luc. As to the kind of experiment: Target reporter protein (Luc) knockdown in cell, reporter protein assay. It counts as cell-based. To be noted: Homo sapiens, DMS-273. In outline:
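Nucleic acid lipid particles added at final 0.1 to 100 nmol/L to DMS273 human SCLC cells stably expressing Luc2, 24 hr exposure then 24 hr further culture after medium change. Luc quantified by Steady Glo luminescence after viable cell count; knockdown efficiency calculated and IC50 taken as concentration giving 50% Luc reduction.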

Data set [4] in a line: Particle size of nucleic acid lipid particles (FVII-siRNA). It counts as physicochemical. In outline:
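Lipid particles formed by micromixing ethanolic ionizable lipid/DSPC/cholesterol/DMG-PEG2000 (50/10/38.5/1.5 mol) with siRNA in pH 4 acetate buffer (3:1 water:oil), diluted with PBS and dialysed against PBS.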

A short description of data set [5]: Encapsulation rate of siRNA in nucleic acid lipid particles (Luc2-siRNA). It counts as physicochemical. The following applies: compound/DSPC/cholesterol/DMG-PEG2000 50/10/38.5/1.5. A digest of the protocol: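 Encapsulation rate was calculated as (total − outer-phase siRNA)/total ×100. Total siRNA was quantified spectrophotometrically after lipid-dissolving ethanol precipitation, and unencapsulated siRNA by RiboGreen in TE (ex 485/em 535 nm). The particles were test lipid/DSPC/cholesterol/DMG-PEG2000 at 50/10/38.5/1.5, formed by microfluidic mixing with Luc2-siRNA at pH 4 and dialyzed against PBS.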

Data set [6] is described as follows: Nucleic acid encapsulation rate of nucleic acid lipid particles (FVII-siRNA). The format is physicochemical. A digest of the protocol: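 Total nucleic acid was measured by adding 30 μL of 3 mol/L sodium acetate and 9 μL of glycogen to 60 μL of FVII-siRNA lipid particles, then precipitating with 1.5 mL ethanol, centrifuging, air-drying, redissolving in water, and reading on a Nanodrop. Outer-phase nucleic acid came from a RiboGreen assay (ex 485 nm, em 535 nm) on samples diluted 10,000× in 1×TE. Encapsulation (%) = (total − outer)/total × 100.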

Setting [7] is: Luc2-siRNA lipid particles using the compound, siRNA 0.1 to 100 nmol/L, concentration at which Luc expression is knocked down to 50%, read-out: IC50.

Where two headings read alike, the source gives them in different places.

As to `CCCCCCCCCCC(CCCCCCCCC(=O)OCC(CCCC)CCCCCC)OC(=O)OCCN(CCN(CC)CC)C(C)C` (stereo not drawn) [Example 69, 2-Butyloctyl 12-decyl-3-ethyl-6-isopropyl-10-oxo-9,11-dioxa-3,6-diazahenicosan-21-oate], the “Particle size (nm)” value in data set [1] was found to be 67.6 nm; in data set [4], 86.8 nm. Also, the “Relative amount of FVII protein (%)” value in data set [2] is given as 6%. Besides, the IC50 in data set [3] (setting [7]) came out at 28 nM. The “Nucleic acid encapsulation rate” value in data set [5] worked out at 98%; in data set [6], 97%.
Regarding `CCCCCCCCCCC(CCCCCCCCCCC(=O)OCC(CCCC)CCCCCC)OC(=O)OCCN(CC)CCN(CC)CC` (stereo not drawn) [Example 66, 2-Butyloctyl 12-decyl-3,6-diethyl-10-oxo-9,11-dioxa-3,6-diazatricosan-23-oate], the “Particle size (nm)” value in data set [1] was 69.8 nm; in data set [4], 85.4 nm. Also, the “Relative amount of FVII protein (%)” value in data set [2] was 17%. For the same molecule, the IC50 in data set [3] (setting [7]) amounted to 28 nM. Moreover, the “Nucleic acid encapsulation rate” value in data set [5] was determined as 73%; in data set [6], 98%.
For `CCCCCCCCCC(=O)OCCCCCCC(CCCCCCOC(=O)CC(CCCCCCC)CCCCCCC)OC(=O)OCCN(CC)CCN(CC)CC` (stereo not drawn) [Example 78, 12-(6-(Decanoyloxy)hexyl)-3,6-diethyl-10-oxo-9,11-dioxa-3,6-diazooctadecan-18-yl 3-heptyldecanoate], the “Particle size (nm)” value in data set [1] is on record as 71.7 nm; in data set [4] it was 74.2 nm. Further, the “Relative amount of FVII protein (%)” value in data set [2] worked out at 10%. The midpoint of inhibition in data set [3], the IC50, lay at 16 nM. Further, the “Nucleic acid encapsulation rate” value in data set [5] was 75%; in data set [6] it was 78%.
`CCCCCCCCC(CCCCCC)COC(=O)CCCCCCC(CCCCCC)OC(=O)OCCN(CCN(CC)CC)C(C)C` (stereo not drawn) [Example 94, 2-Hexyldecyl 3-ethyl-12-hexyl-6-isopropyl-10-oxo-9,11-dioxa-3,6-diazanonadecan-19-oate]: the results for the “Particle size (nm)” value in data set [1] and in data set [4] were 72.7 nm and 86.1 nm, respectively. In addition, the “Relative amount of FVII protein (%)” value in data set [2] was 8%. Moreover, the IC50 in data set [3] (setting [7]) amounted to 39 nM. For the same molecule, the entries for the “Nucleic acid encapsulation rate” value in data set [5] and in data set [6] were 76% and 75%, respectively.
For the molecule `CCCCCCCC(=O)OCCN(CCOC(=O)OC(CCCCCC)CCCCCCCCC(=O)OCC(CCCC)CCCCCC)CCN(CC)CC` (stereo not drawn) [Example 88, 2-Butyloctyl 3-ethyl-12-hexyl-6-(2-(octanoyloxy)ethyl)-10-oxo-9,11-dioxa-3,6-diazahenicosan-21-oate], the figures for the “Particle size (nm)” value in data set [1] and in data set [4] were 74.6 nm and 78.7 nm, respectively. Moreover, in data set [2], the “Relative amount of FVII protein (%)” value stood at 2%. The IC50 in data set [3] (setting [7]) amounted to 23 nM. Further, the “Nucleic acid encapsulation rate” value in data set [5] turned out to be 81%; in data set [6], 83%.
For the molecule `CCCCCCCCC(=O)OCCN(CCOC(=O)OC(CCCCCC)CCCCCCCCC(=O)OCC(CCCC)CCCCCC)CCN(CC)CC` (stereo not drawn) [Example 103, 2-Butyloctyl 3-ethyl-12-hexyl-6-(2-(nonanoyloxy)ethyl)-10-oxo-9,11-dioxa-3,6-diazahenicosan-21-oate], the entries for the “Particle size (nm)” value in data set [1] and in data set [4] were 64.3 nm and 69.8 nm, respectively. Also, in data set [2], the “Relative amount of FVII protein (%)” value worked out at 2%. Also, in data set [3] (setting [7]), the IC50 is 14 nM. Further, the “Nucleic acid encapsulation rate” value in data set [5] turned out to be 80%; in data set [6], 79%.
Consider `CCCCCCCCCCCCC(CCCCCCCCC(=O)OCC(CCCC)CCCCCC)OC(=O)OCCN(CC)CCN(CC)CC` (stereo not drawn) [Example 50, 2-Butyloctyl 12-dodecyl-3,6-diethyl-10-oxo-9,11-dioxa-3,6-diazahenicosan-21-oate], for which the “Particle size (nm)” value in data set [1] is on record as 65.6 nm; in data set [4], 65.4 nm. The “Relative amount of FVII protein (%)” value in data set [2] stood at 11%. Also, the IC50 in data set [3] (setting [7]) was 13 nM. Besides, the “Nucleic acid encapsulation rate” value in data set [5] is on record as 79%; in data set [6], 84%.
As to `CCCCCCCCC(CCCCCC)COC(=O)CCCC(CCCCCC)OC(=O)OCCN(CCOC(=O)CCCCCCC)CCN(CC)CC` (stereo not drawn) [Example 111, 2-Hexyldecyl 3-ethyl-12-hexyl-6-(2-(octanoyloxy)ethyl)-10-oxo-9,11-dioxa-3,6-diazahexadecan-16-oate], the “Particle size (nm)” value in data set [1] amounted to 63.9 nm; in data set [4], 70.5 nm. For the same molecule, the “Relative amount of FVII protein (%)” value in data set [2] is 2%. Further, in data set [3] (setting [7]), the IC50 amounted to 42 nM. The “Nucleic acid encapsulation rate” value in data set [5] is recorded as 93%; in data set [6], 88%.
In the case of `CCCCCCCCC(CCCCCC)COC(=O)CCCCCCCCC(CCCCCC)OC(=O)OCCN(CCOC(=O)CCCCC)CCN(CC)CC` (stereo not drawn) [Example 100, 2-Hexyldecyl 3-ethyl-6-(2-(hexanoyloxy)ethyl)-12-hexyl-10-oxo-9,11-dioxa-3,6-diazahenicosan-21-oate], the figures for the “Particle size (nm)” value in data set [1] and in data set [4] were 76.7 nm and 85.1 nm, respectively. In data set [2], the “Relative amount of FVII protein (%)” value came to 2%. The IC50 in data set [3] (setting [7]) is 26 nM. Besides, the “Nucleic acid encapsulation rate” value is 82% in data set [5] and 80% in data set [6].
As for `CCCCCCCCCCCCC(CCCCCCCCC(=O)OCC(CCCC)CCCCCC)OC(=O)OCCN(CCN(CC)CC)C(C)C` (stereo not drawn) [Example 61, 2-Butyloctyl 12-dodecyl-3-ethyl-6-isopropyl-10-oxo-9,11-dioxa-3,6-diazahenicosan-21-oate], the figures for the “Particle size (nm)” value in data set [1] and in data set [4] were 60.9 nm and 67.7 nm, respectively. Also, in data set [2], the “Relative amount of FVII protein (%)” value came out at 8%. Further, in data set [3] (setting [7]), the IC50 came to 7 nM. Further, the “Nucleic acid encapsulation rate” value was found to be 75% in data set [5] and 78% in data set [6].
As for `CCCCCCC(CCCC)COC(=O)CCCCCCCCC(CCCCCC)OC(=O)OCCN(CCOC(=O)CCCCC)CCN(CC)CC` (stereo not drawn) [Example 105, 2-Butyloctyl 3-ethyl-6-(2-(hexanoyloxy)ethyl)-12-hexyl-10-oxo-9,11-dioxa-3,6-diazahenicosan-21-oate], the “Particle size (nm)” value in data set [1] is listed as 100 nm; in data set [4], 102.4 nm. Further, the “Relative amount of FVII protein (%)” value in data set [2] is given as 7%. The IC50 in data set [3] (setting [7]) is 28 nM. Also, the “Nucleic acid encapsulation rate” value in data set [5] is on record as 81%; in data set [6], 73%.
Regarding `CCCCC/C=C\C/C=C\CCCCCCCC(=O)OCCCCCCC(CCCCCCOC(=O)CCCCCCC/C=C\C/C=C\CCCCC)OC(=O)OCCN(CC)CCN(CC)CC` [Example 45, 7-(((2-((2-(Diethylamino)ethyl)(ethyl)amino)ethoxy)carbonyl)oxy)tridecane-1,13-diyl(9Z,9′Z,12Z,12′Z)-bis(octadeca-9,12-dienoate)], the figures for the “Particle size (nm)” value in data set [1] and in data set [4] were 71.7 nm and 71.5 nm, respectively. Moreover, in data set [2], the “Relative amount of FVII protein (%)” value turned out to be 16%. In addition, the IC50 in data set [3] (setting [7]) was found to be 22 nM. The results for the “Nucleic acid encapsulation rate” value in data set [5] and in data set [6] were 76% and 79%, respectively.
In the case of `CCCCCCCC/C=C\CCCCCCCC(=O)OCCN(CCCN(CC)CC)CCOC(=O)OC(CCCCCC)CCCCCCCCC(=O)OCC(CCCC)CCCCCC` (stereo not drawn) [Example 93, 2-Butyloctyl 3-ethyl-13-hexyl-7-(2-(oleoyloxy)ethyl)-11-oxo-10,12-dioxa-3,7-diazadocosan-22-oate], the figures for the “Particle size (nm)” value in data set [1] and in data set [4] were 70.4 nm and 67.8 nm, respectively. The “Relative amount of FVII protein (%)” value in data set [2] came out at 7%. In data set [3] (setting [7]), the IC50 worked out at 22 nM. Besides, the “Nucleic acid encapsulation rate” value in data set [5] amounted to 70%; in data set [6], 73%.
`CCCCCCCC(=O)OCCN(CCOC(=O)OC(CCCCCC)CCCCCCCCC(=O)OCC(CCCCC)CCCCC)CCN(CC)CC` (stereo not drawn) [Example 129, 2-Pentylheptyl 3-ethyl-12-hexyl-6-(2-(octanoyloxy)ethyl)-10-oxo-9,11-dioxa-3,6-diazahenicosan-21-oate]: the “Particle size (nm)” value amounted to 70.2 nm in data set [1] and 76.4 nm in data set [4]. In data set [2], the “Relative amount of FVII protein (%)” value is given as 4%. Besides, the IC50 in data set [3] (setting [7]) turned out to be 41 nM. In addition, the “Nucleic acid encapsulation rate” value in data set [5] stood at 63%; in data set [6], 58%.
